Measurements reported in ChEMBL document CHEMBL5370585, “Exploration and Biological Evaluation of 1,3-Diamino-7H-pyrrol[3,2-f]quinazoline Derivatives as Dihydrofolate Reductase Inhibitors” (J Med Chem, 2023).
Values after ≈ are worked out from the molar mass of the structure shown. Active and inactive are the calls of the source. The rule behind the calls is not given here.

Assays:
[1] = target: T1, Dihydrofolate reductase (Homo sapiens) (UniProt P00374); test: Inhibition of human DHFR at 1 uM incubated for 10 mins in presence of NADPH by colorimetry based analysis relative to control
T1 sequence (whole entry): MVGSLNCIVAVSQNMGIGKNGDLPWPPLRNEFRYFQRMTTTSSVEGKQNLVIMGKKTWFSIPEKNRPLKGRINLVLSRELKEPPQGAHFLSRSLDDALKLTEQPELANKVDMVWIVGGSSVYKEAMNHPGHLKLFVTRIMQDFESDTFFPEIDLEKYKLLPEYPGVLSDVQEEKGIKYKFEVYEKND

HepG2 = test: Cytotoxicity against human HepG2 cells measured after 72 hrs by MTT assay; format: functional, cell-based; settings: HepG2, 72 h
Acinetobacter baumannii [2] = test: Antibacterial activity against Acinetobacter baumannii ATCC 19606 assessed as reduction in microbial growth incubated for 16 to 18 hrs by CLSI based broth dilution method; format: functional; settings: time 16-18 hrs
Enterococcus = test: Antibacterial activity against Vancomycin-resistant Enterococcus ATCC 51575 incubated for 16 to 18 hrs by CLSI based broth dilution method; format: functional; settings: time 16-18 hrs
Staphylococcus aureus [3] = test: Antibacterial activity against Staphylococcus aureus ATCC 29213 incubated for 16 to 18 hrs in presence of human plasma by CLSI based broth dilution method; format: functional; settings: time 16-18 hrs
HCT-116 = test: Cytotoxicity against human HCT-116 cells measured after 72 hrs by MTT assay; format: functional, cell-based; settings: HCT-116, 72 h
[4] = Toxicity in BALB/c mouse xenografted with mouse EMT6 cells at 5 mg/kg, ip administered every 3 days for 14 consecutive days; format: organism-based; settings: in vivo, 336 h, time 14 day
Escherichia coli [5] = test: Antibacterial activity against Escherichia coli ATCC 25922 incubated for 16 to 18 hrs in absence of human plasma by CLSI based broth dilution method; format: functional; settings: time 16-18 hrs
Staphylococcus aureus [6] = test: Antibacterial activity against vancomycin intermediate Staphylococcus aureus ATCC 700699 incubated for 16 to 18 hrs by CLSI based broth dilution method; format: functional; settings: time 16-18 hrs
[7] = Toxicity in BALB/c mouse xenografted with mouse EMT6 cells assessed as effect on body weight at 5 mg/kg, ip measured on day 1 (reference value: 18.5 +/-0.5g); format: organism-based; settings: in vivo, 24 h, time 1 day
Staphylococcus aureus [8] = test: Antibacterial activity against Staphylococcus aureus ATCC 29213 incubated for 16 to 18 hrs by CLSI based broth dilution method; format: functional; settings: time 16-18 hrs
Escherichia coli [9] = test: Antibacterial activity against Escherichia coli ATCC BAA-2340 incubated for 16 to 18 hrs by CLSI based broth dilution method; format: functional; settings: time 16-18 hrs
[10] = Toxicity in BALB/c mouse xenografted with mouse EMT6 cells assessed as effect on body weight at 5 mg/kg, ip measured on day 14 (reference value: 21.6 +/-0.6g); format: organism-based; settings: in vivo, 336 h, time 14 day
Acinetobacter baumannii [11] = test: Antibacterial activity against Acinetobacter baumannii ATCC 19606 incubated for 16 to 18 hrs by CLSI based broth dilution method; format: functional; settings: time 16-18 hrs
Klebsiella pneumoniae [12] = test: Antibacterial activity against Klebsiella pneumoniae 15-1 assessed as reduction in microbial growth incubated for 16 to 18 hrs by CLSI based broth dilution method; format: functional; settings: time 16-18 hrs
Escherichia coli [13] = test: Antibacterial activity against Escherichia coli ATCC 25922 assessed as inhibition of bacterial growth at upto 8 times MIC measured upto 28 hrs by time kill curve assay; format: functional, organism-based
Escherichia coli [14] = test: Antibacterial activity against Escherichia coli ECO 15-1 incubated for 16 to 18 hrs by CLSI based broth dilution method; format: functional; settings: time 16-18 hrs
[15] = tested on: Staphylococcus epidermidis; test: Antibacterial activity against Staphylococcus epidermidis ATCC 12228 incubated for 16 to 18 hrs by CLSI based broth dilution method; format: functional; settings: time 16-18 hrs
Staphylococcus aureus [16] = test: Antibacterial activity against methicillin-resistant Staphylococcus aureus ATCC 33591 incubated for 16 to 18 hrs by CLSI based broth dilution method; format: functional; settings: time 16-18 hrs
Staphylococcus aureus [17] = test: Antibacterial activity against methicillin-sensitive Staphylococcus aureus 15-2 incubated for 16 to 18 hrs by CLSI based broth dilution method; format: functional; settings: time 16-18 hrs
Enterococcus faecalis [18] = test: Antibacterial activity against Enterococcus faecalis EFA19-1 incubated for 16 to 18 hrs by CLSI based broth dilution method; format: functional; settings: time 16-18 hrs
Escherichia coli [19] = test: Antibacterial activity against Escherichia coli ATCC 25922 incubated for 16 to 18 hrs in presence of human plasma by CLSI based broth dilution method; format: functional; settings: time 16-18 hrs
Klebsiella pneumoniae [20] = test: Antibacterial activity against Klebsiella pneumoniae ATCC 700603 assessed as reduction in microbial growth incubated for 16 to 18 hrs by CLSI based broth dilution method; format: functional; settings: time 16-18 hrs
HGC-27 = test: Cytotoxicity against human HGC-27 cells measured after 72 hrs by MTT assay; format: functional, cell-based; settings: HGC-27, 72 h
EMT6 [21] = test: Antitumor activity against mouse EMT6 cells xenografted in BALB/c mouse model assessed as tumor weight at 5 mg/kg,ip administered every 3 days for 14 consecutive days (reference value: 1.53 +/-0.26g); format: functional; settings: time 14 day
Acinetobacter baumannii [22] = test: Antibacterial activity against Acinetobacter baumannii 20-1 incubated for 16 to 18 hrs by CLSI based broth dilution method; format: functional; settings: time 16-18 hrs
Staphylococcus aureus [23] = test: Antibacterial activity against methicillin-resistant Staphylococcus aureus ATCC 43300 incubated for 16 to 18 hrs in presence of human plasma by CLSI based broth dilution method; format: functional; settings: time 16-18 hrs
Staphylococcus aureus [24] = test: Antibacterial activity against methicillin-resistant Staphylococcus aureus ATCC 43300 incubated for 16 to 18 hrs by CLSI based broth dilution method; format: functional; settings: time 16-18 hrs
Escherichia coli [25] = test: Antibacterial activity against Escherichia coli ATCC 25922 incubated for 16 to 18 hrs by CLSI based broth dilution method; format: functional; settings: time 16-18 hrs
Staphylococcus aureus [26] = test: Antibacterial activity against Staphylococcus aureus ATCC 29213 incubated for 16 to 18 hrs in absence of human plasma by CLSI based broth dilution method; format: functional; settings: time 16-18 hrs
EMT6 [27] = test: Antitumor activity against mouse EMT6 cells xenografted in BALB/c mouse model assessed as tumor growth inhibition at 5 mg/kg,ip administered every 3 days for 14 consecutive days relative to control; format: functional; parameters: scale not given: the % may be the effect or the level left; settings: time 14 day
[28] = Toxicity in BALB/c mouse xenografted with mouse EMT6 cells assessed as effect on body weight at 10 mg/kg, ip measured on day 1 (reference value: 18.5 +/-0.5g); format: organism-based; settings: in vivo, 24 h, time 1 day
Enterococcus faecalis [29] = test: Antibacterial activity against Enterococcus faecalis EFA19-2 incubated for 16 to 18 hrs by CLSI based broth dilution method; format: functional; settings: time 16-18 hrs
[30] = Toxicity in BALB/c mouse xenografted with mouse EMT6 cells assessed as effect on body weight at 10 mg/kg, ip measured on day 14 (reference value: 21.6 +/-0.6g); format: organism-based; settings: in vivo, 336 h, time 14 day
Staphylococcus aureus [31] = test: Antibacterial activity against vancomycin intermediate Staphylococcus aureus ATCC 700788 incubated for 16 to 18 hrs by CLSI based broth dilution method; format: functional; settings: time 16-18 hrs
Staphylococcus aureus [32] = test: Antibacterial activity against methicillin-resistant Staphylococcus aureus ATCC 43300 assessed as inhibition of bacterial growth at upto 8 times MIC measured upto 28 hrs by time kill curve assay; format: functional, organism-based
Staphylococcus aureus [33] = test: Antibacterial activity against methicillin-resistant Staphylococcus aureus ATCC 43300 incubated for 16 to 18 hrs in absence of human plasma by CLSI based broth dilution method; format: functional; settings: time 16-18 hrs
Staphylococcus aureus [34] = test: Antibacterial activity against methicillin-sensitive Staphylococcus aureus 15-1 incubated for 16 to 18 hrs by CLSI based broth dilution method; format: functional; settings: time 16-18 hrs
Acinetobacter baumannii [35] = test: Antibacterial activity against Acinetobacter baumannii 20-2 incubated for 16 to 18 hrs by CLSI based broth dilution method; format: functional; settings: time 16-18 hrs
Enterococcus faecalis [36] = test: Antibacterial activity against Enterococcus faecalis ATCC 29212 incubated for 16 to 18 hrs by CLSI based broth dilution method; format: functional; settings: time 16-18 hrs
EMT6 [37] = test: Antitumor activity against mouse EMT6 cells xenografted in BALB/c mouse model assessed as tumor growth inhibition at 10 mg/kg,ip administered every 3 days for 14 consecutive days relative to control; format: functional; parameters: scale not given: the % may be the effect or the level left; settings: time 14 day
EMT6 [38] = test: Antitumor activity against mouse EMT6 cells xenografted in BALB/c mouse model assessed as tumor weight at 10 mg/kg,ip administered every 3 days for 14 consecutive days (reference value: 1.53 +/-0.26g); format: functional; settings: time 14 day
Staphylococcus aureus [39] = test: Antibacterial activity against methicillin-sensitive Staphylococcus aureus ATCC 25923 incubated for 16 to 18 hrs by CLSI based broth dilution method; format: functional; settings: time 16-18 hrs
Pseudomonas aeruginosa = test: Antibacterial activity against Pseudomonas aeruginosa ATCC 27853 incubated for 16 to 18 hrs by CLSI based broth dilution method; format: functional; settings: time 16-18 hrs
EMT6 [40] = test: Antitumor activity against mouse EMT6 cells xenografted in ip dosed BALB/c mouse model assessed as delay in tumor progression administered every 3 days for 14 consecutive days; format: functional, organism-based; settings: time 14.0 day
Staphylococcus aureus [41] = test: Antibacterial activity against methicillin-sensitive Staphylococcus aureus ATCC 29213 incubated for 16 to 18 hrs by CLSI based broth dilution method; format: functional; settings: time 16-18 hrs
MCF7 = test: Cytotoxicity against human MCF7 cells measured after 72 hrs by MTT assay; format: functional, cell-based; settings: MCF7, 72 h

Question: Which inhibition [1] does the source give for `Nc1nc(N)c2c(ccc3c2ccn3Cc2nc3ccccc3s2)n1` here?
Answer: 96%

Question: And the IC50 (HepG2)?
Answer: 34 nM

Question: What about the MIC (Acinetobacter baumannii [2]) of the same compound?
Answer: 1 µg/mL

Question: And the MIC (Enterococcus)?
Answer: ≤ 0.03 µg/mL

Question: What about the MIC (Staphylococcus aureus [3]) of the same compound?
Answer: 2 µg/mL

Question: What about the IC50 (HCT-116) of the same compound?
Answer: 2 nM

Question: What about the Activity [4] of the same compound?
Answer: Non-Toxic

Question: And the MIC (Escherichia coli [5])?
Answer: 0.03 µg/mL (≈ 0.0866 µM)

Question: And the MIC (Staphylococcus aureus [6])?
Answer: 0.25 µg/mL (≈ 0.722 µM)

Question: And the Activity [7]?
Answer: 18.5 g

Question: And the MIC (Staphylococcus aureus [8])?
Answer: 0.06 µg/mL (≈ 0.173 µM)

Question: And the MIC (Escherichia coli [9])?
Answer: > 64 µg/mL

Question: What about the Activity [10] of the same compound?
Answer: 15.1 g

Question: And the MIC (Acinetobacter baumannii [11])?
Answer: 1 µg/mL (≈ 2.89 µM)

Question: What about the MIC (Klebsiella pneumoniae [12]) of the same compound?
Answer: 2 µg/mL

Question: What about the Activity (Escherichia coli [13]) of the same compound?
Answer: Active

Question: And the MIC (Escherichia coli [14])?
Answer: > 64 µg/mL

Question: And the MIC [15]?
Answer: ≤ 4 ng/mL

Question: What about the MIC (Staphylococcus aureus [16]) of the same compound?
Answer: ≤ 0.03 µg/mL

Question: What about the MIC (Staphylococcus aureus [17]) of the same compound?
Answer: ≤ 0.03 µg/mL

Question: And the MIC (Enterococcus faecalis [18])?
Answer: ≤ 0.03 µg/mL

Question: And the MIC (Escherichia coli [19])?
Answer: 1 µg/mL

Question: And the MIC (Klebsiella pneumoniae [20])?
Answer: 2 µg/mL

Question: What about the IC50 (HGC-27) of the same compound?
Answer: 1 nM

Question: What about the Activity (EMT6 [21]) of the same compound?
Answer: 0.41 g

Question: What about the MIC (Acinetobacter baumannii [22]) of the same compound?
Answer: 16 µg/mL (≈ 46.2 µM)

Question: What about the MIC (Staphylococcus aureus [23]) of the same compound?
Answer: 1 µg/mL

Question: And the MIC (Staphylococcus aureus [24])?
Answer: 0.016 µg/mL (≈ 0.0462 µM)

Question: And the MIC (Escherichia coli [25])?
Answer: 0.03 µg/mL (≈ 0.0866 µM)

Question: And the MIC (Staphylococcus aureus [26])?
Answer: 0.06 µg/mL (≈ 0.173 µM)

Question: What about the Activity (EMT6 [27]) of the same compound?
Answer: 72.9%

Question: What about the Activity [28] of the same compound?
Answer: 18.6 g

Question: And the MIC (Enterococcus faecalis [29])?
Answer: ≤ 0.03 µg/mL

Question: What about the Activity [30] of the same compound?
Answer: 14.3 g

Question: And the MIC (Staphylococcus aureus [31])?
Answer: ≤ 0.03 µg/mL

Question: And the Activity (Staphylococcus aureus [32])?
Answer: Active

Question: What about the MIC (Staphylococcus aureus [33]) of the same compound?
Answer: 0.016 µg/mL (≈ 0.0462 µM)

Question: And the MIC (Staphylococcus aureus [34])?
Answer: ≤ 0.03 µg/mL

Question: And the MIC (Acinetobacter baumannii [35])?
Answer: 1 µg/mL (≈ 2.89 µM)

Question: And the MIC (Enterococcus faecalis [36])?
Answer: ≤ 4 ng/mL

Question: What about the Activity (EMT6 [37]) of the same compound?
Answer: 71.1%

Question: What about the Activity (EMT6 [38]) of the same compound?
Answer: 0.44 g

Question: What about the MIC (Staphylococcus aureus [39]) of the same compound?
Answer: 0.06 µg/mL (≈ 0.173 µM)

Question: And the MIC (Pseudomonas aeruginosa)?
Answer: > 64 µg/mL

Question: And the Activity (EMT6 [40])?
Answer: Dose-Dependent Effect

Question: And the MIC (Staphylococcus aureus [41])?
Answer: ≤ 0.03 µg/mL

Question: And the IC50 (MCF7)?
Answer: 110 nM
